This is an account of results in paper PMC10028264, “Synergistic antifungal interaction of N-(butylcarbamothioyl) benzamide and amphotericin B against Cryptococcus neoformans” (Frontiers in Microbiology, 2023).

Values after ≈ are worked out from the molar mass of the structure shown.

This test deals with T1, cryptococcal urease (Cryptococcus neoformans, UniProt O13465).
T1 construct: 100 μL of crude protein extract; endogenous in cells; host or cells: Cryptococcus neoformans ATCC 34872, crude lysate (glass-bead lysis, supernatant)
Nature of the test: Urease activity inhibition test (indophenol method, crude protein extract). It is filed as biochemical. Conditions: C. neoformans ATCC 34872 crude protein extract; indophenol method. Here is the method: Five colonies of C. neoformans were suspended in 100 μL SD broth and inoculated onto SD agar using a Drigalski spreader, and the culture was incubated at 37°C for 48 h. Afterward, all fungal growth was gently scraped and transferred to conical flasks containing 300 mL of SD broth and incubated with shaking (150 rpm) at 37°C for further 48 h. Cells were centrifuged (6,000 × g, 10 min) and washed three times with distilled water. The protein extraction was performed according to [Moller et al. (2016)] with modifications. Briefly, fungal cells were resuspended in 10 mL of chilled lysis buffer consisting of 100 μM Nα-tosyl-L-lysine chloromethyl ketone hydrochloride (TLCK), 1 mM EDTA, 10% glycerol and 0.15 M phosphate-buffered saline (PBS), pH 8.0. […] Then, the cell debris was removed by centrifugation (6,000 × g, 15 min, 4°C), and the protein content of the resulting supernatant was quantified using the […].
The inhibition of urease activity was evaluated by the indophenol method ([Weatherburn, 1967]). […] The reaction mixtures were incubated for further 10 min at 45°C, and the optical density (OD) was measured at 630 nm. Urease inhibition percentage (I%) was calculated according to the equation: I% = 100–(ODBTU–01/ODcontrol) × 100. […]

T1 sequence (O13465 whole entry): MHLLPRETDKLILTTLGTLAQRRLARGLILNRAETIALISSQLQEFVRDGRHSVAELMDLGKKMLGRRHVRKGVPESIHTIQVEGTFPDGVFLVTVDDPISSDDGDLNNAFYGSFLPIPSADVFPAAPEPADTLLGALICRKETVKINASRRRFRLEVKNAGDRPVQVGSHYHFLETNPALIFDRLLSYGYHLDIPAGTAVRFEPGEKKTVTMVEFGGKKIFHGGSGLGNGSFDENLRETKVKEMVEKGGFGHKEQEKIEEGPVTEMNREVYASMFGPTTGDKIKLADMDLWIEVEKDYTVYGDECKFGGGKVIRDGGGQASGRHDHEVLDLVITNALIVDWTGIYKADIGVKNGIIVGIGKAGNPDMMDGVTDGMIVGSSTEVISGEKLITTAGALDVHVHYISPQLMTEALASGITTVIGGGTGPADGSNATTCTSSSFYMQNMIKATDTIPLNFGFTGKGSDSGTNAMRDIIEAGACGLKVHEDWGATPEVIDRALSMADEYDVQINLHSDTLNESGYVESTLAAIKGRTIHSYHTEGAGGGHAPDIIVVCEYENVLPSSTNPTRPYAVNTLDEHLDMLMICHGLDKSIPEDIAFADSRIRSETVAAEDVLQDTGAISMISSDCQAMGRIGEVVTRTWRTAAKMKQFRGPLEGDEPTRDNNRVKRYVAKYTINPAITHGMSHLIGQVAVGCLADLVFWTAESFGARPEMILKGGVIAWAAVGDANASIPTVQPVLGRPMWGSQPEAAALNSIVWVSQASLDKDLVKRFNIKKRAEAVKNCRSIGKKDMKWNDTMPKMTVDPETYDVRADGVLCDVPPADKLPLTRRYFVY

As for `NC(N)=S` [thiourea, Thiourea, reference compound], the IC50 urease activity turned out to be 38.6 µg/mL (≈ 507 µM).
